Series [1] deals with MEF. Description: Toxicity in MEF cells assessed as cell viability at 5 uM by incubated for 1 hr by clonogenic survival assay. The series is classed as cell-based. To be noted: mouse.
The target in series [2] is T1, DNA repair protein RAD51 homolog 1 (Mus musculus) (UniProt Q08297).
T1 sequence (whole entry): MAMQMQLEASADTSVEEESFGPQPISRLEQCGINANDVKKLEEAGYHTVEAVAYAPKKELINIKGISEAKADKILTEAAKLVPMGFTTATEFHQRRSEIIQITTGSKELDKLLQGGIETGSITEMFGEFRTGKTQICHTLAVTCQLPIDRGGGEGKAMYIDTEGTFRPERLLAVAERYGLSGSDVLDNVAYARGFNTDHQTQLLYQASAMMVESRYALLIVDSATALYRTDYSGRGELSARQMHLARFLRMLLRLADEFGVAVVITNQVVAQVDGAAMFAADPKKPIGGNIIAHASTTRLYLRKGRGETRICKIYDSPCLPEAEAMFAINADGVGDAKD
The following applies: MEF, 5 uM.
Description: Inhibition of RAD51 in MEF cells assessed as potentiation of MMC-induced cytotoxicity at 5 uM incubated for 1 hr by clonogenic survival assay relative to untreated control

For series [3], the target named is T2, Protein RecA (Escherichia coli K-12) (UniProt P0A7G6).
T2 sequence (whole entry): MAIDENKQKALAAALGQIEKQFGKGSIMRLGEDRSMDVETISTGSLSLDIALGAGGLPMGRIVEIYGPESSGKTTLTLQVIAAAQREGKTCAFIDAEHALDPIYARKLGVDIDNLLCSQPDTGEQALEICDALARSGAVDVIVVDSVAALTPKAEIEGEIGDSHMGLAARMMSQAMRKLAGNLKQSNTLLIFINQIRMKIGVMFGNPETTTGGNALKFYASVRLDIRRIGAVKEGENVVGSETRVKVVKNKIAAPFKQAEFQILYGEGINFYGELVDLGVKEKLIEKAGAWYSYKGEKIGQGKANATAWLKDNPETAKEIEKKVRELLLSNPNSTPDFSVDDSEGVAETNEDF
Description: Inhibition of Escherichia coli RecA-mediated DNA strand exchange at 10 to 100 microM using pBSK (+) gapped and linear dsDNA substrates by joint molecule formation assay.

The target in series [4] is T3, DNA repair protein RAD51 homolog 1 (Homo sapiens) (UniProt Q06609).
T3 sequence (whole entry): T1 sequence (whole entry) with S10N, Y46F, T76A, G194A
The following applies: HEK293, 25 uM.
Description: Inhibition of DNA binding to human RAD51 in irradiated HEK cells assessed as reduction in RAD51 foci formation at 25 uM by fluorescence microscopy relative to untreated control

The target in series [5] is T3, DNA repair protein RAD51 homolog 1 (Homo sapiens). The following applies: 200 uM.
Description: Inhibition of human RAD51 oligomerization at 200 uM by gel filtration method
Series [6] deals with HEK-GFP. Description: Effect on RAD51 expression in HEK-GFP cells by Western blotting. The series is classed as functional, cell-based. The following applies: Homo sapiens.
Series [7] deals with T3, DNA repair protein RAD51 homolog 1 (Homo sapiens). To be noted: HEK293, 5 uM.
Description: Inhibition of RAD51 in HEK cells assessed as potentiation of cisplatin-induced cytotoxicity at 5 uM in presence of RAD51 siRNA transfected 40 hrs before compound and cisplatin addition by clonogenic survival assay relative to untreated control
In series [8] the target is T2, Protein RecA (Escherichia coli K-12). Description: Binding affinity to Escherichia coli RecA at 50 microM by SPR method.
Series [9] relates to HEK-GFP. Description: Effect on I-SceI expression in HEK-GFP cells by Western blotting. It is filed as functional, cell-based. To be noted: Homo sapiens. (Immunoblotting shows a protein as a band on a membrane.)
The target in series [10] is T1, DNA repair protein RAD51 homolog 1 (Mus musculus). To be noted: MEF, 5 uM. This is another data set of the same source.
Description: Inhibition of RAD51 in Tp53-/- MEF cells assessed as potentiation of 32 uM cisplatin-induced cytotoxicity at 5 uM incubated for 1 hr by clonogenic survival assay relative to untreated control
For series [11] the target is unchanged. The following applies: MEF, 5 uM. This is another data set of the same source.
Description: Inhibition of RAD51 in Tp53-/- MEF cells assessed as potentiation of 1 uM MMC-induced cytotoxicity at 5 uM incubated for 1 hr by clonogenic survival assay relative to untreated control
Series [12] deals with T3, DNA repair protein RAD51 homolog 1 (Homo sapiens). To be noted: 25 uM.
Description: Inhibition of ssDNA binding to human RAD51 assessed as reduction in RAD51-90-mer ssDNA complex formation at 25 uM by EMSA method
Series [13] has the same target. The following applies: HEK293, 5 uM. The source holds these as a separate data set.
Description: Inhibition of RAD51 in HEK cells assessed as potentiation of cisplatin-induced cytotoxicity at 5 uM in presence of RAD51 siRNA transfected 40 hrs before compound and cisplatin exposure for 10 to 12 hrs by clonogenic survival assay relative to untreated control
Series [14] in a line: Lipophilicity, log P of the compound. The series is classed as physicochemical. The following applies: octanol/water.
The target of series [15] is T1, DNA repair protein RAD51 homolog 1 (Mus musculus). The following applies: MEF, 5 uM. This is another data set of the same source.
Description: Inhibition of RAD51 in MEF cells assessed as potentiation of MMC-induced cytotoxicity at 5 uM incubated for 1 hr in presence of 0.01 uM PARP1 inhibitor AZD2281 by clonogenic survival assay relative to untreated control
The target of series [16] is T2, Protein RecA (Escherichia coli K-12). Description: Inhibition of Escherichia coli RecA-mediated DNA branch migration at 10 to 100 microM using [32P]-labeled 5'-joint molecules after 8 hrs by branch migration assay.
In series [17] the target is T3, DNA repair protein RAD51 homolog 1 (Homo sapiens). To be noted: 25 uM. This is another data set of the same source.
Description: Inhibition of human RAD51 ATPase activity at 25 uM by ATP hydrolysis assay
For series [18] the target is unchanged. To be noted: 20 uM.
Description: Inhibition of human RAD51-ssDNA filament formation at 20 uM added to free RAD51 prior to filament formation by D-loop formation assay
For series [19] the target is unchanged. To be noted: HEK293, 5 uM. This is another data set of the same source.
Description: Inhibition of RAD51 in HEK cells assessed as potentiation of cisplatin-induced cytotoxicity at 5 uM in presence of RAD51 siRNA transfected 40 hrs before compound and cisplatin exposure for 16 hrs by clonogenic survival assay relative to untreated control
Series [20] deals with MEF. Nature of the series: Toxicity in Tp53-/- MEF cells assessed as cell viability at 5 uM by incubated for 1 hr by clonogenic survival assay. It is filed as cell-based. To be noted: mouse.
In series [21] the test system is HEK-GFP. Nature of the series: Effect on GFP expression in HEK-GFP cells transfected with pMX-GFP plasmid by Western blotting. The series is classed as functional, cell-based. The following applies: Homo sapiens.
Series [22] addresses T3, DNA repair protein RAD51 homolog 1 (Homo sapiens). The following applies: 20 uM. This is another data set of the same source.
Description: Inhibition of dsDNA binding to human RAD51-ssDNA filament assessed as reduction in coaggregation formation at 20 uM in presence of 50 mM NaCl by dsDNA coaggregation assay
For series [23] the target is unchanged. Nature of the series: Inhibition of human RAD51-mediated DNA strand exchange at 5 to 20 uM using pBSK (+) gapped and linear dsDNA substrates by joint molecule formation assay.
Series [24] shares this target. Nature of the series: Inhibition of human RAD51 in HEK-GFP cells assessed as reduction in double-strand breaks-induced homologous recombination at 5 to 20 uM by chromosomally integrated DR-GFP reporter gene assay. The series is classed as cell-based. For orientation: A reporter such as luciferase makes a cellular process visible.

As usually defined, the logP is the decadic logarithm of the partition coefficient of the neutral form, usually between octanol and water. High values mean higher lipophilicity, low ones lower lipophilicity.

SMILES strings stand for the structures. Substitutions are numbered along the chain they refer to. The source made the active and inactive calls. The rule behind the calls is not given here.

Regarding `O=c1c2ccccc2nc(/C=C/c2cccnc2)n1Cc1ccccc1`, the Activity entry in series [1] and in series [20] was “Non-toxic” in each case. In addition, the inhibition entry in [2], in series [3], in [5] and in series [16] was “inactive” in each case. The inhibition entry in series [4], in [7], in [10], in series [11], in [12] and in series [13] was “Active” each time. Moreover, the inhibition result in series [15], in series [17], in series [18], in series [19] and in [22] was “Active” in each case. The outcome in series [6], in series [8], in [9] and in series [21] was inactive. For the same molecule, the log partition coefficient (logP) in [14] was determined as 3.7.
In the case of `Cc1cc2nc3c(nc2cc1C)[C@@]1(C(=O)O)CCC3(C)C1(C)C`, the inhibition entry in [23] and in series [24] was “inactive” in each case. This molecule also showed a logP in series [14] of 3.7.
